Source: patent US7759346B2, “[[2-(amino-3,4-dioxo-1-cyclobuten-1-yl)amino]alkyl]-acid derivatives for the treatment of pain” (priority 2001, dated 2010)
Where two headings read alike, the source gives them in different places.

Experiments:
Spraque-Dawley rats [1] = assay: Observable signs of sedation and ataxia
Spraque-Dawley rats [2] = assay: Chronic Constriction Injury-induced tactile hypersensitivity (von Frey); format: in vivo, rat; conditions: IP, one week after CCl surgery
Source text: Rats were anesthetized with 3.5% halothane in O2 at 1 L/min and maintained with 1.5% halothane in O2 during surgery. A modified chronic sciatic nerve constriction injury (Mosconi & Kruger, 1996; Bennett & Xie, 1988) was produced by a cutaneous incision and a blunt dissection through the biceps femoris to expose the sciatic nerve. A PE 90 Polyethylene tubing (Intramedic, Clay Adams; Becton Dickinson Co.) cuff (2 mm length) was placed around the sciatic nerve at the level of the mid-thigh. The wound was closed in layers using 4-0 silk suture and wound clips. Testing was conducted 6-10 days after surgery.
Animals were placed in elevated wire cages and allowed 45-60 minutes to acclimate to the testing room. Baseline tactile sensitivity was assessed using a series of calibrated von Frey monofilaments (Stoelting; Wood Dale, Ill.) 0-3 days before surgery. Von Frey monofilaments were applied to the mid-plantar hind paw in sequential ascending or descending order, as necessary, to hover as closely as possible to the threshold of responses. The threshold was indicated by the lowest force that evoked a brisk withdrawal response to the stimuli. Thus, a withdrawal response led to the presentation of the next lighter stimulus and the lack of a withdrawal response led to the presentation of the next stronger stimulus. Rats with baseline thresholds <10 g force were excluded from the study. […] Under cumulative dosing conditions, compounds were administered IP every 30 minutes with the cumulative dose increasing in ½ log unit increments. Tactile hypersensitivity was assessed 20-30 minutes following each drug administration.
Test Method 2 Data Analysis—The 50% threshold values (in gm force) estimated by the Dixon non-parametric test (Chaplan et al, 1994) was calculated and fifteen-grams of force was used as the maximal force. Dose-effect curves were generated for each experimental condition for each rat. Individual tactile hypersensitivity threshold values were averaged to provide a mean (±1 SEM). Reversal of tactile hypersensitivity was defined as a return to baseline tactile sensitivity and was calculated according to the following equation:
(§1) [formula] in which 50%^drug+CCl is the 50% value after compound in animals approximately one week after CCl surgery, 50%^CCl is the 50% value approximately one week after CCl surgery alone, and 50%^baseline is the 50% value before CCl surgery. Maximal effect of 100% reversal represents a return to the mean pre-operative threshold value for subjects in that experimental condition. Test Method 3: Scheduled-Controlled Responding.

[3] = test system: cingulate and retrosplenial cortices of mice and rats; assay: Induction of vacuoles (vacuolization) versus behaviorally effective doses; conditions: in vivo
Spraque-Dawley rats [4] = assay: Prostaglandin E2-induced thermal hypersensitivity, warm-water tail withdrawal, single compound studies; format: in vivo, rat; conditions: given 30 min before PGE2
Description: Ketamine and dizocilpine are high affinity use-dependent NMDA receptor channel blockers, while memantine is a moderate affinity use-dependent NMDA receptor channel blocker. CGS-19755 is a competitive NMDA antagonist and ifenprodil is a […] polyamine antagonist. Test Method 1: Prostaglandin E2-Induced Thermal Hypersensitivity.
(§2) The terminal 10 cm of the tail was placed into a thermos bottle containing water warmed to 38, 42, 46, 50, 54, or 58° C. The latency in seconds for the animal to remove the tail from the water was used as a measure of nociception.
(§3) Following the assessment of baseline thermal sensitivity, thermal hypersensitivity was produced by a 50 μL injection of 0.1 mg prostaglandin E2 (PGE2) into the terminal 1 cm of the tail. Temperature-effect curves were generated before (baseline) and after (15, 30, 60, 90 and 120 min) the PGE2 injection.
Single compound studies. The ability of drugs to reverse PGE2-induced thermal hypersensitivity was assessed using a single dose time-course procedure. Under this procedure, a single dose of the compound to be tested was administered intraperitoneally (IP), orally (PO) or intranasally (IN) 30 min before the injection of PGE2. […] sensitivity was assessed 30 min after PGE2 injection.
(§4) Test Method 1 Data Analysis—The temperature that produced a half-maximal increase in the tail-withdrawal latency (i.e., T10) was calculated from each temperature-effect curve. The T10 was determined by interpolation from a line drawn between the point above and the point below 10 sec on the temperature-effect curve. For these studies, thermal hypersensitivity was defined as a leftward shift in the temperature-effect curve and a decrease in the T10 value. Reversal of thermal hypersensitivity was defined as a return to baseline of the temperature-effect curve and the T10 value and was calculated according to the following equation:
[formula] in which T10^drug+PGE2 is the T10 after a drug in combination with PGE2, T10^PGE2 is the T10 after PGE2 alone, and T10^baseline is the T10 under control conditions. A % MPE value of 100 indicates a complete return to the baseline thermal sensitivity observed without the PGE2 injection. […] Test Method 2: Chronic Constriction Injury

Spraque-Dawley rats [5] = format: in vivo, rat
Description: as §2, §3
Compounds were administered IP at the same time as PGE2, which was administered 30 min before testing.
as §4, with “equation: […]” for “equation:”

[6] = test system: rats trained to discriminate between saline and PCP; assay: PCP-like discriminative stimulus effects (substitution for PCP); format: in vivo
Spraque-Dawley rats [7] = assay: Warm-water tail withdrawal combination studies with morphine; format: in vivo, rat; conditions: 10.0 mg/kg IP, 30 min before testing
Description: as §2
Combination compound studies. […] Compounds were administered IP at the same time 30 min before testing.
as §4, with “equation: […]” for “equation:”

[8] = PCP-like effects relative to doses effective in an ischemia model; conditions: in vivo
Spraque-Dawley rats [9] = assay: Scheduled-controlled responding (operant responding, food presentation)
Source text: as §1
Rats were trained under a multiple-cycle procedure during experimental sessions conducted five days each week. Each training cycle consisted of a 1-min pretreatment period followed by a 10-min response period. During the pretreatment period, stimulus lights were not illuminated, and responding had no scheduled consequences. During the response period, the left or right stimulus lights were illuminated (counterbalanced among subjects), the response lever was extended and subjects could respond under a fixed ratio 30 schedule of food presentation. Training sessions consisted of 3 consecutive cycles. Testing sessions were identical to training sessions except that a single dose of drug was administered at the start of the first cycle.
Data analysis. Operant response rates from individual animals were averaged for the three cycles during test sessions and were converted to percent of control response rates using the average rate from the previous training day as the control value (i.e., average of three cycles). Data are presented as the mean (±1 SEM) response rate as a percent of control.

O=c1c2c(c1=O)N(CCP(=O)(O)O)CCCN2 [Compound A, [2-(8,9-Dioxo-2,6-diazabicyclo[5.2.0]non-1(7)-en-2-yl)ethyl]phosphonic acid]
ataxia or sedation (Spraque-Dawley rats [1]; at doses needed to relieve pain in preclinical models): did not produce ataxia or sedation | sedation or ataxia (Spraque-Dawley rats [1]; doses effective in PGE2 test (as high as 178 mg/kg)): not associated with sedation or ataxia | sedation or ataxia (Spraque-Dawley rats [1]; doses used in the CCl-induced tactile hypersensitivity study, IP): not associated with sedation or ataxia | % Reversal of CCl-induced tactile hypersensitivity (Spraque-Dawley rats [2]; cumulative dose 1 mg/kg): 13% | % Reversal of CCl-induced tactile hypersensitivity (Spraque-Dawley rats [2]; cumulative dose 3 mg/kg): 45% | % Reversal of CCl-induced tactile hypersensitivity (Spraque-Dawley rats [2]; cumulative dose 10 mg/kg, 10 mg/kg): 97% | effectiveness/vacuolization ratio [3]: ≤ 16 | % MPE (reversal of PGE2-induced thermal hypersensitivity) (Spraque-Dawley rats [4]; IP, 1 mg/kg): −7% | % MPE (reversal of PGE2-induced thermal hypersensitivity) (Spraque-Dawley rats [4]; IP, 3 mg/kg): 66% | % MPE (reversal of PGE2-induced thermal hypersensitivity) (Spraque-Dawley rats [4]; IP, 10 mg/kg, 10 mg/kg): 79% | % MPE (reversal of PGE2-induced thermal hypersensitivity) (Spraque-Dawley rats [4]; PO, 10 mg/kg): 5% | % MPE (reversal of PGE2-induced thermal hypersensitivity) (Spraque-Dawley rats [4]; PO, 30 mg/kg): 23% | % MPE (reversal of PGE2-induced thermal hypersensitivity) (Spraque-Dawley rats [4]; PO, 100 mg/kg, 100 mg/kg): 87% | Change from Baseline (T10) (Spraque-Dawley rats [5]; 10.0 mg/kg IP with PGE2, PGE2 + vehicle −5.6): −1.5 | T10 (temperature producing half-maximal tail-withdrawal latency) (Spraque-Dawley rats [5]; 10 mg/kg IP with PGE2, PGE2 alone 44.8±0.1, vehicle 50.3±0.4): 48.8±0.2 | substitution for PCP [6]: did not substitute for PCP | Change from Baseline (T10) (Spraque-Dawley rats [7]): −0.3 | devoid of many PCP-like effects up to doses times higher than those effective in an ischemia model [8]: 4-10 | Operant responding: response rate as a percent of control (Spraque-Dawley rats [9]; IP, 3 mg/kg): 111% | Operant responding: response rate as a percent of control (Spraque-Dawley rats [9]; IP, 10 mg/kg): 86% | Operant responding: response rate as a percent of control (Spraque-Dawley rats [9]; PO, 10 mg/kg): 112% | Operant responding: response rate as a percent of control (Spraque-Dawley rats [9]; PO, 30 mg/kg): 97% | Operant responding: response rate as a percent of control (Spraque-Dawley rats [9]; PO, 100 mg/kg): 100% | rates of responding (in words) (Spraque-Dawley rats [9]; schedule of food presentation, Compound A IP or PO at doses that reversed hypersensitivity): did not significantly modify rates of responding
